Columns and labels:
Activin receptor type-1 [1] = target: T1, Activin receptor type-1 (Homo sapiens, UniProt Q04771); test: Luminescence-Based ADPGlo Kinase Activity Assay: Example 53: The assays were performed in 384-well, low volume microtiter assay plates in a final reaction volume of 6 ul. Dose-response curves were generated by incubating 10 nM of each kinase in 50 mM Hepes pH 7.5, 0.02% Tween 20, 0.02% BSA, 1 mM DTT, 10 uM Na3VO4, 10 mM ß-Glycerolphosphate, 1 mM MgCl2, 12 mM MnCl2 and 15 uM ATP for 60 min at 32° C. in the presence or absence of compound diluted in DMS. The amount of generated ADP is a measure of kinase activity and is quantified using the ADP-Glo Kinase Assay (Promega) according to manufacturer's instructions. […] and incubation at 32° C. for 60 min. ATP is subsequently converted into a bioluminescent signal by adding 6 ul luciferase assay reagents (Kinase detection buffer+Kinase Detection Substrate (Promega)) and further incubation at 32° C. for 60 min. For the measurement of luminescence a PHERAstar Multilabel Reader was used at a measurement interval time of 0.1 second (optical module for luminescence measurements in the 230 nm to 750 nm wavelength range). The luminescent signal positively correlates with kinase activity.
T1 sequence (Q04771 whole entry): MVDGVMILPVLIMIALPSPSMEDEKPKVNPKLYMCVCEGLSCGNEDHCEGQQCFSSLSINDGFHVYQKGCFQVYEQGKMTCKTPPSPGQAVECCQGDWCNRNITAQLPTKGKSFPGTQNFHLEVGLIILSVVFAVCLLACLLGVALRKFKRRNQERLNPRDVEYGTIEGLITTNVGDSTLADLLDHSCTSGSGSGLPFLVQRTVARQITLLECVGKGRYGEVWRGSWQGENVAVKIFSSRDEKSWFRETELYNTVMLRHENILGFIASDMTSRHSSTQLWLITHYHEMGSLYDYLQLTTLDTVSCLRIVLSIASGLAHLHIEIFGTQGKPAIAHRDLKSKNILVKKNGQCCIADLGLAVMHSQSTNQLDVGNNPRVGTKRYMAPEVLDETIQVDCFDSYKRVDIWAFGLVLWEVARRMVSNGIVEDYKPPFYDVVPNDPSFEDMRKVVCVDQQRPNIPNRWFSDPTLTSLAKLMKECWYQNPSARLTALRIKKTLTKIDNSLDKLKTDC

[2] = target: Bone morphogenetic protein receptor type-1A (Homo sapiens, UniProt P36894); test: Luminescence-Based ADPGlo Kinase Activity Assay: Example 53: The assays were performed in 384-well, low volume microtiter assay plates in a final reaction volume of 6 ul. Dose-response curves were generated by incubating 10 nM of each kinase in 50 mM Hepes pH 7.5, 0.02% Tween 20, 0.02% BSA, 1 mM DTT, 10 uM Na3VO4, 10 mM ß-Glycerolphosphate, 1 mM MgCl2, 12 mM MnCl2 and 15 uM ATP for 60 min at 32° …
Sequence of Bone morphogenetic protein receptor type-1A (P36894 whole entry): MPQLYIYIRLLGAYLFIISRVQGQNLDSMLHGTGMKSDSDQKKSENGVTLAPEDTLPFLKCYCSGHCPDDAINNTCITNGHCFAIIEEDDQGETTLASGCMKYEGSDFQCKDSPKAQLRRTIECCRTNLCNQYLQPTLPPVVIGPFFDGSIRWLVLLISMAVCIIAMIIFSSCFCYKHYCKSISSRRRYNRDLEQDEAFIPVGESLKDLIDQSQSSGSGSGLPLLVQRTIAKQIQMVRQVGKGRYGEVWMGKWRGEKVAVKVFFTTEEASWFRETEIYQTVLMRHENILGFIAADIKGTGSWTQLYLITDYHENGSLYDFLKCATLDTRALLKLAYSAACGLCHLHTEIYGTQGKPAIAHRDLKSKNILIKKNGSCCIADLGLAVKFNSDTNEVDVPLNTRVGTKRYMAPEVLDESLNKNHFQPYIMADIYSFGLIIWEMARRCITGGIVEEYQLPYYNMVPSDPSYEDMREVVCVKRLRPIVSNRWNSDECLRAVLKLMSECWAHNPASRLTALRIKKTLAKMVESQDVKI
Description: The amount of generated ADP is a measure of kinase activity and is quantified using the ADP-Glo Kinase Assay (Promega) according to manufacturer's instructions. ADP is converted to ATP by adding 3 ul of ADP-Glo Reagent and incubation at 32° C. for 60 min. ATP is subsequently converted into a bioluminescent signal by adding 6 ul luciferase assay reagents (Kinase detection buffer+Kinase Detection Substrate (Promega)) and further incubation at 32° C. for 60 min. […] The luminescent signal positively correlates with kinase activity.

Activin receptor type-1 [3] = target: T1, Activin receptor type-1; test: (§1) In Vitro Enzyme Inhibition Using a Biochemical Peptide Phosphorylation Assay- Caliper Assay: Example 54:The assays were performed in 384-well, low volume microtiter assay plates in a final reaction volume of 9 ul.
[4] = target: Activin receptor type-1-like (Homo sapiens, UniProt P37023); test: as §1
Sequence of Activin receptor type-1-like (P37023 whole entry): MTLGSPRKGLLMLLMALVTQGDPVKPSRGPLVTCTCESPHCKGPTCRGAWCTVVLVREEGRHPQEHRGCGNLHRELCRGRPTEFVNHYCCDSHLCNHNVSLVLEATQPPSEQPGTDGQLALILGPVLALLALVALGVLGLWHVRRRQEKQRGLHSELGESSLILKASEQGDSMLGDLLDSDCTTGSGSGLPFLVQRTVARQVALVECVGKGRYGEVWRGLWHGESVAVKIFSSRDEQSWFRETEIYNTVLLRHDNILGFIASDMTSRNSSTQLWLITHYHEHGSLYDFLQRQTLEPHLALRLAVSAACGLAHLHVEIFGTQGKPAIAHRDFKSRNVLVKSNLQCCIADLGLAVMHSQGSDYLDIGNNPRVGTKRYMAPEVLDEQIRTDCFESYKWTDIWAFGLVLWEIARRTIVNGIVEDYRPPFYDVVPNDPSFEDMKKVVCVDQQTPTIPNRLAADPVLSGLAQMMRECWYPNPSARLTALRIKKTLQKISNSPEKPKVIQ

TGF-beta receptor type-1 = target: T2, TGF-beta receptor type-1 (Homo sapiens, UniProt P36897); test: as §1
T2 sequence (P36897 whole entry): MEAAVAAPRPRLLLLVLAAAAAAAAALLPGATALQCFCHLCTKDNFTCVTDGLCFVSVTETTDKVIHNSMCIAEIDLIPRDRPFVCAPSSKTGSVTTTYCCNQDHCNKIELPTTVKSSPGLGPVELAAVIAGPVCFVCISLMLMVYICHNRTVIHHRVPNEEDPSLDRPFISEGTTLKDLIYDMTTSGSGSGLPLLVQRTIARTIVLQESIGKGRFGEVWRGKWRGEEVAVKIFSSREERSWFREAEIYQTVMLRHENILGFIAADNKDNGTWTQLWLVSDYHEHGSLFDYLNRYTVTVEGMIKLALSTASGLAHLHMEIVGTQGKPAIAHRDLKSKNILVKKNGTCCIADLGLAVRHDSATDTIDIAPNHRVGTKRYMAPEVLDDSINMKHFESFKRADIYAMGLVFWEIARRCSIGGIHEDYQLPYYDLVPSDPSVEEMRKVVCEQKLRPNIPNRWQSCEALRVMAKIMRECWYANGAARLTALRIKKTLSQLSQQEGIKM

[5] = target: Bone morphogenetic protein receptor type-1B (Homo sapiens, UniProt O00238); test: In Vitro Enzyme Inhibition Using a Biochemical Peptide Phosphorylation Assay- Caliper Assay: Example 54:The assays were performed in 384-well, low volume microtiter assay plates in a final reaction volume of 9 ul. Dose-response curves were generated by incubating 10 nM of each kinase together with 2 uM of the fluorescently labeled substrate peptide 5-Fluo-Ahx-KKYQAEEN-T-YDEYENKK-amid (10 mM stock …
Sequence of Bone morphogenetic protein receptor type-1B (O00238 whole entry): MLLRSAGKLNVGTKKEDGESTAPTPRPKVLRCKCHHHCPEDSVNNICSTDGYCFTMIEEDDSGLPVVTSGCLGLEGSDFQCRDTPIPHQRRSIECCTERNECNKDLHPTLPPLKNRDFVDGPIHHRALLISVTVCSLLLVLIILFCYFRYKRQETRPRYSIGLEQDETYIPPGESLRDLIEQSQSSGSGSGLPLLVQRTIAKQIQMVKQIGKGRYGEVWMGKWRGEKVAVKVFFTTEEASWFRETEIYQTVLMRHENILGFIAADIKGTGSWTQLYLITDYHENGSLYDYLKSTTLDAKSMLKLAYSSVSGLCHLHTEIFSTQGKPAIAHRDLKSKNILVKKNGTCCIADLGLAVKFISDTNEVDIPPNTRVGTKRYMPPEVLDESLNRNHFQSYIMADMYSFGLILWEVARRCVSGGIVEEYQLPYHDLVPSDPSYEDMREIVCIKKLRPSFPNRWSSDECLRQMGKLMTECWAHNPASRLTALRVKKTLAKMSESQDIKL

Work on CC(C)CN1c2ccc(-c3cncc(-c4ccc(=O)n(C(C)C)c4)c3)cc2CS1(=O)=O yielded an IC50 (Activin receptor type-1 [1]) of 110 nM, an IC50 [2] of 930 nM and an IC50 (Activin receptor type-1 [3]) of 160 nM. The IC50 [4] was 690 nM, the IC50 (TGF-beta receptor type-1) was 2400 nM and the IC50 [5] was 1200 nM.

Reference: ChEMBL document CHEMBL5728775, “Pyridinone derivatives and their use as selective ALK-2 inhibitors” (2021)
